# Laboratory results as given in patent publication US20120083471A1, “Novel Compounds, Pharmaceutical Compositions Containing Same, Methods of Use for Same, and Methods for Preparing Same” (priority 2008, published 2012).
# Test system: DIO mice
# Assay: Acute single-dose FSG67 treatment of DIO mice (body weight, food intake)
# Assay type: in vivo, mouse
# Details: single 20 mg/kg ip
# Source text: DIO and lean mouse models. All animal experimentation was done in accordance with guidelines on animal care and use as established by the Johns Hopkins University School of Medicine IACUC. DIO C57BL6J male mice were obtained from Jackson Laboratory (Bar Harbor, ME) and fed a synthetic diet comprised of 60% calories from fat, 20% from carbohydrate, and 20% from protein (5.2 kcal/g) post-weaning through the experimental procedures (D12492i, Research Diets, Inc., New Brunswick, N.J.). […]
# For acute studies, 6 DIO or lean mice were treated with a single dose of FSG67 (20 mg/kg, i.p.) approximately 3 hrs past lights-on. Animal weights and food consumption were measured 18 h after treatment. […] Body weight and food intake were measured daily. In one study, a cohort of mice was pair-fed with amounts consumed by the FSG67-treated animals and mice were monitored with indirect calorimetry (Oxymax Equal Flow System®, Columbus Instruments, Columbus, Ohio). Measurements of VO2 (ml/kg/hr) and VCO2 (ml/kg/hr) were performed and recorded every 15 min. The respiratory exchange ratio (RER) was calculated by Oxymax software, version 5.9, and is defined as ratio of VCO2 to VO2 33. […] Tissues were harvested immediately for RNA extraction; serum was collected and analyzed for glucose, cholesterol, and triglyceride measurements (Bioanalytics, Gaithersburg, Md.). […]
compound,measurement,value
"CCCCCCCCCS(=O)(=O)Nc1ccccc1C(=O)O [Compound 15g, 2-(Nonylsulfonamido)benzoic acid]",food consumption,0.5 ± 0.1 g
same,"food consumption, % of vehicle control",41.6%
